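Protocol summary: plate cells (96-well), add compound at 5 concentrations, incubate 48 h, interpolate endpoints linearly. At the GI50, growth is halved. TGI: concentration producing complete growth inhibition.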
Key:
Test in all cases: growth of human tumour cells (NCI), 48 h
[1] = system: UO-31 renal
[2] = system: BT-549 breast
[3] = system: SNB-75 CNS
[4] = system: HCT-15 colon
[5] = system: HT29 colon
[6] = system: SF-295 CNS
[7] = system: OVCAR-3 ovarian
[8] = system: M14 melanoma
[9] = system: RPMI-8226 leukemia
[10] = system: OVCAR-5 ovarian

| SMILES | GI50 [1] [nM] | TGI [1] [nM] | GI50 [2] [nM] | TGI [2] [nM] | GI50 [3] [nM] | TGI [3] [nM] | GI50 [4] [nM] | TGI [4] [nM] | GI50 [5] [nM] | TGI [5] [nM] | GI50 [6] [nM] | TGI [6] [nM] | GI50 [7] [nM] | TGI [7] [nM] | GI50 [8] [nM] | TGI [8] [nM] | GI50 [9] [nM] | GI50 [10] [nM] | TGI [10] [nM] | TGI [9] [nM] |
| --- | --- | --- | --- | --- | --- | --- | --- | --- | --- | --- | --- | --- | --- | --- | --- | --- | --- | --- | --- | --- |
| CC(C)C[C@H](NC(=O)CNC(=O)c1cc(Cl)ccc1Cl)B1OC(=O)CC(CC(=O)O)(C(=O)O)O1 (some centres not stated) | 58.6 | 2000 | 32.4 | 126 | 182 | 504 | 57.8 | 5980 | 32.7 | 141 | 71 | 1140 | 26.9 | 79.1 | 34 | 143 | 32.1 | 92.8 | 1200 |  |
| CCc1ccc2c(c1)N(CCO)C1=C(C(=O)OC1)C2c1cccc(Br)c1 (configuration not stated) | 1050 | 18100 | 1350 | 19700 | 307 | 8300 | 584 | 15800 | 342 | 4360 | 374 | 13200 | 296 | 1230 | 525 | 10800 | 983 | 4370 | 20800 | 33500 |
| COc1ccc(-c2nc(Nc3cc(C)[nH]n3)c3ccccc3n2)cc1 | 529 | 14900 | 3070 | 12600 | 289 | 2270 | 1340 | > 100000 | 1190 | 5150 | 2610 | > 71400 | 3720 | 38800 | 750 | 31400 | 4160 | 2250 | > 88000 | 28600 |
| CN1C(=O)N(C)C2C1NN=c1s/c(=C\c3ccc(C(F)(F)F)cc3)c(=O)n12 (configuration not stated) | 2210 | > 100000 | 3660 | > 100000 | 2110 | 18100 | 488 | > 100000 | 440 | > 100000 | 581 | 14600 | 493 | 17700 | 1360 | > 100000 | 1650 | 3200 | > 100000 | > 100000 |
| CCCN(CCS(C)(=O)=O)Cc1ccc(-c2ccc3ncnc(Nc4ccc(OCc5cccc(F)c5)c(Cl)c4)c3c2)o1 | 5120 | > 25000 | > 25000 | > 25000 | > 25000 | > 25000 | > 25000 | > 25000 | > 25000 | > 25000 | > 25000 | > 25000 | > 22900 | > 25000 | > 25000 | > 25000 | > 20800 | > 25000 | > 25000 | > 25000 |
| Cc1ccc(/C=N\NC(=O)c2[nH]c3ccc(F)cc3c2-c2ccccc2)cc1 | 47.2 | > 46000 | 34 | 7290 | 38.2 | 16600 | 28.8 |  | 29.1 | 11600 | 26.6 | 1200 | 26.1 | 78.2 | 27.5 |  | 39.5 | 59.1 | > 100000 | > 37200 |
| O=C(/C=C/c1ccccc1)CCN1CCOCC1 |  | 26600 |  | 17900 |  | 51600 |  | 24400 |  | 32800 |  | 38800 |  | 33300 |  | 29000 |  |  | 27100 | 7540 |
